Assay type in all cases: binding
For one data set, the target named is TIP60 (Homo sapiens, UniProt Q92993). Put plainly: REMSA/EMSA with TIP60 protein. Further details: 5 μg of full length purified H2A.Z (Abcam) and TIP60 (SignalChem) proteins were incubated; purchased SignalChem. Particulars: in vitro, 32P-labeled oligonucleotide, purified TIP60; RNA and DNA probes at same molar concentration. As for the experimental part:
(§1) RNA oligonucleotides (15 pmol) were end-labeled with [γ-^32P] ATP (Perkin Elmer) and T4 polynucleotide kinase (New England Biolabs). Reactions were incubated at 37° C. for 1 h and then passed through G-25 spin columns (GE Healthcare) according to the manufacturer's instructions to remove unincorporated radioactivity. Labeled samples were gel-purified on 10% polyacrylamide gels. Binding reactions were carried out in 10 μL volumes in the following buffer: 5 mM Tris pH 7.4, 5 mM MgCl2, 1 mM DTT, 3% v/v glycerol, 100 mM NaCl. 5 μg of full length purified H2A.Z (Abcam) and TIP60 (SignalChem) proteins were incubated with 1.1 nM of ^32P-labeled ss RNAs. All reactions were assembled on ice and then incubated at room temperature for 30 min. Samples were loaded onto 6% native polyacrylamide gels (0.5×TBE) at 4° C. for 3 h at 140 V. Various concentrations (1 μM-10 mM) of H2A.Z and K7 acetylated H2A.Z peptides (AnaSpec) were incubated with a fixed amount of probe in 50 mM Tris-HCl pH 7.5, 100 mM NaCl, 0.4 mM EDTA, and 40 U/ml RNasin, 1 mM DTT, 50% glycerol in a final volume of 10 μL. Thereafter, 1 μl glutaraldehyde (0.2% final concentration) was added into the mixture and incubated at room temperature for 15 minutes. Samples were loaded onto 10% native polyacrylamide gels (0.5×TBE) at 4° C. for 3 h at 170 V. All gels were dried upon fixation with Methanol and Acetic Acid and exposed to X-ray film.
Background: In EMSA bound probe runs differently from free probe, usually more slowly.

Data set [1] concerns the target T1, H2A.Z and K7 acetylated H2A.Z peptides (Homo sapiens, UniProt P0C0S5).
T1 construct: purchased AnaSpec
Put plainly: REMSA with N-terminal H2A.Z peptides. Particulars: in vitro, synthetic peptides. As for the experimental part:
as §1

For another data set, the target named is T2, H2A.Z (Homo sapiens, UniProt P0C0S5).
T2 construct: 5 μg of full length purified H2A.Z (Abcam) and TIP60 (SignalChem) proteins were incubated; purchased Abcam
Description: RNA electrophoresis mobility shift assay (REMSA) with H2A.Z protein. Particulars: in vitro, 32P-labeled oligonucleotide, full length purified H2A.Z. As for the experimental part: as §1

Entries after “also recorded” stand apart in the source; their conditions may differ.

Chain of TIP60 (Q92993 whole entry): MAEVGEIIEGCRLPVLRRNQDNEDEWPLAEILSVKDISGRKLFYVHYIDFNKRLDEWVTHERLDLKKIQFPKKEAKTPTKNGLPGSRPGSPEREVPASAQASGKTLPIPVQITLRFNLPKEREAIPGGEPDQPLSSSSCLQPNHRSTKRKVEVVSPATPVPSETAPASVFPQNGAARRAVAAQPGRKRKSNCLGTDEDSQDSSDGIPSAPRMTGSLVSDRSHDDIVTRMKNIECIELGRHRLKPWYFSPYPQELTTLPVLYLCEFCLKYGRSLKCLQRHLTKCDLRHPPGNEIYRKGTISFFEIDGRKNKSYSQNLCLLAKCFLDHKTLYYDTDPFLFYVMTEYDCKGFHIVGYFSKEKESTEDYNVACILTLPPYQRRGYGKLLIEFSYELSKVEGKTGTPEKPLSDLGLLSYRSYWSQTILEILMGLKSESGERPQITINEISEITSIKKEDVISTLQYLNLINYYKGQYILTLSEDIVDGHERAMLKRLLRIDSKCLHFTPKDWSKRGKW
T2 sequence (P0C0S5 whole entry): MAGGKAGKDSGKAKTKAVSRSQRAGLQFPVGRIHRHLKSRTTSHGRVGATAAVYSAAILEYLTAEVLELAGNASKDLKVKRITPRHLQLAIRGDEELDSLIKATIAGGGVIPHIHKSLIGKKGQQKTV
T1 sequence (P0C0S5 2-21): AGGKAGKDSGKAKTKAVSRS

Consider “DM2: DNA oligonucleotide duplex of the same primary sequence as UR2 (sense CTTTCCTCCACTCTCCCTGGGA; antisense TCCCAGGGAGAGTGGAGGAAAG; DNA, backbone and methylation of C not given here; further chemistry not fully specified)”, for which the “complex formation with TIP60” value in the data set with TIP60 is recorded as “weak complex formation”.
The same measure, in the same setting: in the case of “DM3: DNA oligonucleotide duplex of the same primary sequence as UR3 (sense GGCGTGGCGGTGGGCGCGCAGT; antisense ACTGCGCGCCCACCGCCACGCC; DNA, backbone and methylation of C not given here; further chemistry not fully specified)” it was “weak complex formation”; in that of “DM9A: double-stranded DNA oligonucleotide of the same primary sequence as RM9A (sense GCCCTTTCCCCAGCCTTAGCGA; antisense TCGCTAAGGCTGGGGAAAGGGC; DNA, backbone and methylation of C not given here; further chemistry not fully specified)”, “stronger TIP60 binding to the RNAs than to the DNA”; in that of “Mut RM9A: mutated RM9A abolishing the predicted stem-loop structure, SEQ ID NO 86 (UUAUGUUAUUGUUUAUAUACGU; RNA, backbone not given here; further chemistry not fully specified)”, “did change the strength and the mobility of the RNA-TIP60 complexes”.
For the substance “RM9A: RNA oligonucleotide of common binding motif 9 in c-MYC SPEARs, 5′-GGCGUGGCGGUGGGCGCGCAGU-3′, SEQ ID NO 85 (GGCGUGGCGGUGGGCGCGCAGU; RNA, backbone not given here; further chemistry not fully specified)”, the “complex formation with TIP60” value in the data set with TIP60 was “able to form RNPs; also recorded: stronger TIP60 binding to the RNAs than to the DNA”. In addition, the “shift in migration with H2A.Z N-terminal peptides, unmodified and acetylated at lysine 7” value in data set [1] is given as “A shift in migration was observed”. For the same substance, the “RNP complex formation with H2A.Z” value with H2A.Z is listed as “able to form RNPs”.
As to “UR1: unrelated RNA oligonucleotide lacking the common binding motif, SEQ ID NO 87 (GCGCCCUGCAGCCUGGUACGCG; RNA, backbone not given here; further chemistry not fully specified)”, the “complex formation with TIP60” value with TIP60 was “did not form detectable RNPs complexes”. Besides, the “RNP complex formation with H2A.Z” value in the data set with H2A.Z is reported as “did not form detectable RNPs complexes”.
“UR2: unrelated RNA oligonucleotide lacking the common binding motif, SEQ ID NO 88 (CUUUCCUCCACUCUCCCUGGGA; RNA, backbone not given here; further chemistry not fully specified)”: the “complex formation with TIP60” value with TIP60 is “did not form detectable RNPs complexes”. The “RNP complex formation with H2A.Z” value in the data set with H2A.Z is “did not form detectable RNPs complexes”.
In the case of “UR3: unrelated RNA oligonucleotide lacking the common binding motif, SEQ ID NO 89 (GCCCUUUCCCCAGCCUUAGCGA; RNA, backbone not given here; further chemistry not fully specified)”, the “complex formation with TIP60” value with TIP60 is on record as “did not form detectable RNPs complexes”. Further, the “RNP complex formation with H2A.Z” value in the data set with H2A.Z is recorded as “did not form detectable RNPs complexes”.

Values taken from patent US20240209456A1, “METHODS AND COMPOSITIONS RELATED TO CELL-CYCLE RNA's” (BETH ISRAEL DEACONESS MEDICAL CENTER, priority 2021, published 2024).
